System: acylase
Assay: Enzyme addition: decomposition of capsaicin by acylase, HPLC
Type: physicochemical
Settings: acylase 0.05 u/ml, 50 mM tris buffer, 37° C., capsaicin 0.0028%, relative to beginning of shaking
Experimental: Each of the samples obtained in Reference Example 2 and Reference Comparative Example 2 was diluted 10-fold with a 50 mM tris buffer (capsaicin concentration: 0.0028%). To this liquid, an acylase was added at a concentration of 0.05 u/ml. The mixture was shaken in a constant-temperature water bath at 37° C. to allow the reaction of the enzyme to proceed.
Meanwhile, as Reference Example, a capsaicin reagent (capsaicin content: 95% or more) manufactured by SIGMA was diluted with a 50 mM tris buffer such that the capsaicin concentration was the same as that (0.0028%) in Reference Example 2 and Reference Comparative Example 2. To this liquid, an acylase was added at a concentration of 0.05 u/ml. The mixture was shaken in a constant-temperature water bath at 37° C. in the same manner as in Reference Example 2 and Reference Comparative Example 2, to allow the reaction of the enzyme to proceed.
To 2 ml of each sample in which the reaction of the enzyme was allowed to proceed for 0 (at the beginning of the shaking) minutes, 30 minutes, or 60 minutes, 3 ml of water was added, and thus the volume thereof was adjusted to 5 ml. Moreover, 1 ml of 2.5 N NaOH was added thereto, followed by heating in boiling water at 100° C. for 10 minutes. After the heating, 20 ml of methanol was added thereto. […] For the HPLC measurement, a fluorescence detector was used. […]

ratio of capsaicin remaining after the enzymatic reaction for 60 minutes: 2.0%
SMILES: COc1cc(CNC(=O)CCCC/C=C/C(C)C)ccc1O [Reference Example, capsaicin]

— US20120289612A1, “Composite Material and Method for Producing the Same” (HOUSE FOODS CORPORATION, priority 2010, published 2012)
